Experimental data published in the supplement of paper PMC10331698.
± gives the standard deviation of the averaged measurements.

How the values were obtained:
Experiment in all cases: level (log10 ratio to DMSO vehicle control); higher = higher biomarker level / cell amount than vehicle control
[1] = compound: C=CC(=O)OCCC(F)(F)C(F)(F)C(F)(F)C(F)(F)C(F)(F)C(F)(F)C(F)(F)C(F)(F)F [8:2 Fluorotelomer acrylate]; conditions: in DMSO
Procedure: (§1)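 BioMAP Diversity Plus panel of 12 human primary cell co-culture systems (3C, 4H, LPS, SAg, BT, BF4T, BE3C, CASM3C, HDF3CGF, KF3CT, MyoF, Mphg). Compounds were added 1 h before stimulation and left for 24 h (MyoF 48 h; BT 72 h for soluble read-outs or 6 d for IgG). Biomarkers were read by ELISA, cytotoxicity by SRB, PBMC viability and proliferation by Alamar Blue. Each well value was divided by the mean of 8 DMSO control wells on the same plate and log10 transformed; duplicate blinded samples were tested at 4 concentrations.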

[2] = compound: O=C(O)C(F)(F)C(F)(F)C(F)(F)C(F)(F)C(F)(F)C(F)(F)C(F)(F)F [Ammonium perfluorooctanoate]; conditions: in DMSO
Procedure: as §1

[3] = compound: OCCC(F)(F)C(F)(F)C(F)(F)C(F)(F)C(F)(F)C(F)(F)C(F)(F)C(F)(F)F [8:2 Fluorotelomer alcohol]; conditions: 6700 nM; in DMSO
Procedure: as §1

Tetrafluorosuccinic acid = compound: O=C(O)C(F)(F)C(F)(F)C(=O)O [Tetrafluorosuccinic acid]; conditions: in DMSO
Procedure: as §1

[4] = compound: O=S(=O)(OCC(F)(F)F)C(F)(F)C(F)(F)C(F)(F)C(F)(F)F [2,2,2-Trifluoroethyl perfluorobutanesulfonate]; conditions: in DMSO
Procedure: as §1

Perfluorooctanoic acid = compound: O=C(O)C(F)(F)C(F)(F)C(F)(F)C(F)(F)C(F)(F)C(F)(F)C(F)(F)F [Perfluorooctanoic acid]; conditions: in DMSO
Procedure: as §1

[5] = compound: OCC(F)(F)C(F)(F)C(F)(F)C(F)(F)C(F)(F)C(F)(F)C(F)(F)C(F)(F)C(F)(F)C(F)(F)C(F)(F)F [11:1 Fluorotelomer alcohol]; conditions: in DMSO
Procedure: as §1

Test System | level (log10) ([1]; 6700 nM) | level (log10) ([1]; 20000 nM) | level (log10) ([1]; 60000 nM) | level (log10) ([2]; 6700 nM) | level (log10) ([2]; 20000 nM) | level (log10) ([2]; 60000 nM) | level (log10) [3] | level (log10) (Tetrafluorosuccinic acid; 6700 nM) | level (log10) (Tetrafluorosuccinic acid; 20000 nM) | level (log10) (Tetrafluorosuccinic acid; 60000 nM) | level (log10) ([4]; 6700 nM) | level (log10) ([4]; 20000 nM) | level (log10) ([4]; 60000 nM) | level (log10) (Perfluorooctanoic acid; 6700 nM) | level (log10) (Perfluorooctanoic acid; 20000 nM) | level (log10) (Perfluorooctanoic acid; 60000 nM) | level (log10) ([5]; 1100 nM) | level (log10) ([5]; 3300 nM) | level (log10) ([5]; 10000 nM)
CASM3C:CXCL9/MIG | 0.026 ± 0.0071 | -0.0055 ± 0.066 | 0.011 ± 0.065 | -0.001 ± 0.016 | 0.017 ± 0.017 | 0.0225 ± 0.028 | 0.0025 ± 0.026 | -0.006 ± 0.0099 | -0.0135 ± 0.0021 | 0.014 ± 0.0085 | -0.0035 ± 0.026 | -0.014 ± 0.047 | -0.072 ± 0.09 | 0.016 ± 0.0085 | -0.0065 ± 0.04 | 0.042 ± 0.076 | 0.0005 ± 0.0035 | -0.002 ± 0.0028 | 0.014 ± 0.021
CASM3C:CXCL8/IL-8 | -0.0185 ± 0.012 | -0.0165 ± 0.00071 | -0.0085 ± 0.00071 | 0.005 ± 0.0099 | 0.0085 ± 0.013 | 0.049 ± 0.033 | -0.006 ± 0.011 | -0.001 ± 0.0042 | -0.0145 ± 0.018 | -0.002 ± 0.016 | 0.0335 ± 0.0064 | 0.031 ± 0.048 | 0.024 ± 0.042 | 0.014 ± 0.0085 | 0.009 ± 0.0042 | 0.052 ± 0.014 | -0.0025 ± 0.0035 | -0.006 | -0.007 ± 0.064
HDF3CGF:M-CSF | -0.0205 ± 0.011 | -0.0375 ± 0.0021 | -0.0165 ± 0.013 | 0.002 ± 0.037 | 0.034 ± 0.017 | -0.049 ± 0.042 | -0.044 ± 0.028 | -0.0505 ± 0.018 | -0.0735 ± 0.0035 | -0.048 ± 0.0099 | -0.009 ± 0.0057 | 0.0105 ± 0.022 | 0.0195 ± 0.005 | -0.0205 ± 0.04 | 0.013 ± 0.0028 | 0.0235 ± 0.016 | 0.0115 ± 0.016 | 0.0095 ± 0.032 | -0.003 ± 0.021
HDF3CGF:CXCL10/IP-10 | 0.01 ± 0.021 | 0.003 ± 0.037 | 0.01 ± 0.028 | -0.015 ± 0.0042 | -0.023 ± 0.016 | -0.0495 ± 0.04 | -0.039 ± 0.0085 | -0.0225 ± 0.0078 | -0.027 ± 0.04 | -0.0425 ± 0.064 | -0.024 ± 0.0014 | -0.058 | -0.099 ± 0.0042 | -0.0035 ± 0.011 | -0.017 ± 0.016 | -0.03 ± 0.034 | -0.0435 ± 0.015 | -0.0725 ± 0.0064 | -0.039 ± 0.02
MyoF:MMP-1 | -0.0295 ± 0.0092 | -0.06 ± 0.071 | 0.0075 ± 0.098 | -0.029 ± 0.016 | -0.0145 ± 0.019 | 0.0415 ± 0.013 | -0.0175 ± 0.011 | -0.006 ± 0.023 | 0.0025 ± 0.0021 | 0.0535 ± 0.059 | 0.018 ± 0.16 | 0.043 ± 0.16 | 0.0695 ± 0.12 | -0.032 | -0.018 ± 0.038 | 0.043 ± 0.086 | -0.027 ± 0.0042 | -0.0445 ± 0.0021 | 0.004 ± 0.052
CASM3C:CCL2/MCP-1 | -0.0085 ± 0.0021 | -0.012 ± 0.016 | 0.0085 ± 0.032 | 0.008 ± 0.017 | -0.004 ± 0.0014 | 0.051 ± 0.033 | -0.0125 ± 0.0021 | -0.0005 ± 0.00071 | -0.0165 ± 0.005 | -0.0005 ± 0.025 | -0.0155 ± 0.0035 | -0.0105 ± 0.005 | 0.0065 ± 0.0035 | 0.007 ± 0.0085 | -0.01 ± 0.03 | 0.0215 ± 0.022 | -0.01 ± 0.024 | -0.0055 ± 0.012 | 0.012 ± 0.025
MyoF:CXCL8/IL-8 | -0.003 ± 0.02 | 0.008 ± 0.018 | 0.029 ± 0.0057 | 0.019 ± 0.011 | 0.004 ± 0.017 | 0.036 ± 0.065 | 0.023 ± 0.0014 | -0.013 ± 0.0099 | -0.019 ± 0.014 | 0.006 ± 0.025 | -0.003 ± 0.064 | 0.0405 ± 0.057 | 0.013 ± 0.09 | 0.022 ± 0.0028 | 0.0725 ± 0.026 | 0.078 ± 0.02 | -0.0155 ± 0.035 | -0.0145 ± 0.037 | 0 ± 0.04
BE3C:uPA | -0.0175 ± 0.005 | -0.008 ± 0.0028 | -0.001 ± 0.017 | 0.002 ± 0.0071 | -0.002 ± 0.0042 | 0.018 ± 0.0085 | -0.0175 ± 0.00071 | -0.007 ± 0.0057 | -0.016 ± 0.021 | -0.003 ± 0.013 | -0.001 ± 0.0099 | -0.013 ± 0.0014 | -0.0135 ± 0.023 | -0.014 ± 0.013 | -0.0065 ± 0.0021 | 0.0185 ± 0.015 | -0.0155 ± 0.013 | -0.0405 ± 0.0078 | -0.0175 ± 0.0035
